Reference: the Bradley open melting point set (2014)

| SMILES | melting point [°C] |
| --- | --- |
| O=C(CBr)c1ccccc1 [2-bromoacetophenone] | 50 |
| O=C(O)c1ccccc1Br [2-bromobenzoic acid] | 149 |
| CCC(C)Br (stereo not drawn) [2-bromobutane] | -112 |
| Cc1cc(C)c(Br)c(C)c1 [2-bromomesitylene] [listing 1 of 2 here] | 2 |
| Cc1cc(C)c(Br)c(C)c1 [2-bromomesitylene] [listing 2 of 2 here] | 2 |
| CC(C)Br [2-bromopropane] | -89 |
| O=C(O)c1cnc(Br)s1 [2-bromothiazole-5-carboxylic acid] | 182 |
| Cc1ccccc1Br [2-bromotoluene] | -27 |
| CCC(C)=O [2-butanone] | -87 |
| CC#CCO [2-butyn-1-ol] | -2 |
| O=Cc1ccccc1C(=O)O [2-carboxybenzaldehyde] | 99 |
| O=C(O)c1ccccc1B(O)O [2-carboxybenzeneboronic acid] | 220 |
| CC(C)(C)Cl [2-chloro-2-methylpropane] | -25 |
| O=C(CCl)Nc1cccc([N+](=O)[O-])c1 [2-chloro-3'-nitroacetanilide] | 114 |
| COc1ccc(C#N)c(Cl)c1OC [2-chloro-3,4-dimethoxybenzonitrile] | 102 |
| O=[N+]([O-])c1cccnc1Cl [2-chloro-3-nitropyridine] | 101 |
| OCc1ccc(F)cc1Cl [2-chloro-4-fluorobenzyl alcohol] | 45 |
| Nc1ccc(I)cc1Cl [2-chloro-4-iodoaniline] | 70 |
| COc1ccc(CBr)c(Cl)c1 [2-chloro-4-methoxybenzyl bromide] | 57 |
| Cc1ccc(N)c(Cl)c1 [2-chloro-4-methylaniline] | 7 |
| Cc1ccc([N+](=O)[O-])cc1Cl [2-chloro-4-nitrotoluene] [listing 1 of 2 here] | 64 |
| Cc1ccc([N+](=O)[O-])cc1Cl [2-chloro-4-nitrotoluene] [listing 2 of 2 here] | 60 |

| SMILES | melting point [°C] |
| --- | --- |
| Cc1ccc(Cl)c(N)c1 [2-chloro-5-methylaniline] | 31 |
| O=[N+]([O-])c1ccc(Cl)c(CO)c1 [2-chloro-5-nitrobenzyl alcohol] | 77 |
| O=C(O)c1ccc(C(F)(F)F)nc1Cl [2-chloro-6-(trifluoromethyl)nicotinic acid] | 119 |
| OB(O)c1ccccc1Cl [2-chlorobenzeneboronic acid] | 98 |
| NS(=O)(=O)c1ccccc1Cl [2-chlorobenzenesulfonamide] | 190 |
| N#CCc1ccccc1Cl [2-chlorobenzyl_cyanide] | 24 |
| CCC(C)Cl (stereo not drawn) [2-chlorobutane] | -131 |
| OCCCl [2-chloroethanol] [listing 1 of 2 here] | -63 |
| OCCCl [2-chloroethanol] [listing 2 of 2 here] | -67 |
| Cc1ccc(S(=O)(=O)CCCl)cc1 [2-chloroethyl p-tolyl sulfone] | 79 |
| OB(O)c1cccnc1Cl [2-chloropyridine-3-boronic acid] | 160 |
| OB(O)c1ccnc(Cl)c1 [2-chloropyridine-4-boronic acid] | 162 |
| O=Cc1ccnc(Cl)c1 [2-chloropyridine-4-carboxaldehyde] | 48 |
| OCc1ccnc(Cl)c1 [2-chloropyridine-4-methanol] | 65 |
| OB(O)c1cc2ccccc2nc1Cl [2-chloroquinoline-3-boronic acid] | 146 |
| N#Cc1ccccc1S(=O)(=O)Cl [2-cyanobenzenesulfonyl chloride] | 67 |
| O=C1C=CCCC1 [2-cyclohexene-1-one] | -53 |
| CCCCCCCCC(C)O (stereo not drawn) [2-decanol] [listing 1 of 2 here] | -2 |
| CCCCCCCCC(C)O (stereo not drawn) [2-decanol] [listing 2 of 2 here] | -5 |
| CCCCCCCCC(C)=O [2-decanone] | 3 |
| O=CC[C@H](O)[C@H](O)CO [2-deoxy-D-ribose] | 85 |
| CCOc1ccc2ccccc2c1C(=O)O [2-ethoxy-1-naphthoic acid] | 144 |

| SMILES | melting point [°C] |
| --- | --- |
| CCC(CC)CO [2-ethyl-1-butanol] | -52 |
| CCc1ccccc1N [2-ethylaniline] | -44 |
| CCc1ccccc1B(O)O [2-ethylbenzeneboronic acid] | 97 |
| CCCCC(CC)C(=O)O (stereo not drawn) [2-ethylhexanoic acid] | -59 |
| CCc1ccccc1O [2-ethylphenol] | -18 |
| OB(O)c1ccc(C(F)(F)F)cc1F [2-fluoro-4-(trifluoromethyl)benzeneboronic acid] | 114 |
| OB(O)c1cc(C(F)(F)F)ccc1F [2-fluoro-5-(trifluoromethyl)benzeneboronic acid] | 107 |
| O=Cc1ccc(F)c(B(O)O)c1 [2-fluoro-5-formylbenzeneboronic acid] | 170 |
| O=C(O)c1c(F)cccc1C(F)(F)F [2-fluoro-6-(trifluoromethyl)benzoic acid] | 86 |
| OB(O)c1ccccc1F [2-fluorobenzeneboronic acid] | 104 |
| O=C(Cl)c1ccccc1F [2-fluorobenzoyl chloride] | 5 |
| Fc1ccccc1-c1ccccc1 [2-fluorobiphenyl] | 74 |
| Oc1ccccc1F [2-fluorophenol] | 15 |
| O=C(O)c1ccnc(F)c1 [2-fluoropyridine-4-carboxylic acid] | 346 |
| OB(O)c1cc2ccccc2nc1F [2-fluoroquinoline-3-boronic acid] | 92 |
| Cc1ccccc1F [2-fluorotoluene] | -87 |
| COc1ccc(O)c(C=O)c1 [2-hydroxy-5-methoxybenzaldehyde] | 15 |
| O=C(CO)c1ccccc1 [2-hydroxyacetophenone] | 6 |
| N#Cc1ccccc1O [2-hydroxybenzonitrile] | 94 |
| OCC1COc2ccccc2O1 (stereo not drawn) [2-hydroxymethyl-1,4-benzodioxane] | 89 |
| O=C(O)c1ccccc1I [2-iodobenzoic acid] | 162 |
| Sc1nccs1 [2-mercaptothiazole] | 79 |

| SMILES | melting point [°C] |
| --- | --- |
| COc1ccc2cc([N+](=O)[O-])ccc2c1C(=O)O [2-methoxy-6-nitronaphthalene-1-carboxylic acid] | 187 |
| COc1ccccc1-c1ccccc1 [2-methoxybiphenyl] [listing 1 of 2 here] | 30 |
| COc1ccccc1-c1ccccc1 [2-methoxybiphenyl] [listing 2 of 2 here] | 31 |
| COc1ncccc1B(O)O [2-methoxypyridine-3-boronic acid] | 137 |
| CC(O)CC(C)(C)O (stereo not drawn) [2-methyl-2,4-pentanediol] | -40 |
| CC(C)(C)S [2-methyl-2-propanethiol] | 1 |
| C#CC(C)(C)O [2-methyl-3-butyn-2-ol] | 3 |
| Cc1occc1C(=O)O [2-methyl-3-furoic acid] | 98 |
| CC1=C(c2ccccc2)c2ccccc2C1=O [2-methyl-3-phenyl-1H-inden-1-one] | 87 |
| Cc1ccc([N+](=O)[O-])cc1N [2-methyl-5-nitroaniline] | 107 |
| Cc1ccc2cc([N+](=O)[O-])ccc2n1 [2-methyl-6-nitroquinoline] | 164 |
| Cc1ccccc1B(O)O [2-methylbenzeneboronic acid] | 163 |
| Cc1nc2ccccc2o1 [2-methylbenzoxazole] | 3 |
| Cc1ccccc1-c1ccccc1 [2-methylbiphenyl] | 0 |
| CCCCCCCCCCCCCCCC(C)C [2-methylheptadecane] | 6 |
| Cc1ccccc1OCC(=O)O [2-methylphenoxyacetic acid] | 154 |
| CC(C)C=O [2-methylpropanal] | -65 |
| C=Cc1ccccc1C [2-methylstyrene] | -69 |
| Cc1cccs1 [2-methylthiophene] | -63 |
| O=C(Oc1ccc2ccccc2c1)c1ccccc1 [2-naphthyl benzoate] | 107 |
| N#Cc1ccc(C(F)(F)F)cc1[N+](=O)[O-] [2-nitro-4-(trifluoromethyl)benzonitrile] | 42 |
| Cc1cccc(C)c1[N+](=O)[O-] [2-nitro-m-xylene] | 15 |

| SMILES | melting point [°C] |
| --- | --- |
| COc1ccccc1[N+](=O)[O-] [2-nitroanisole] | 10 |
| O=Cc1ccccc1[N+](=O)[O-] [2-nitrobenzaldehyde] | 45 |
| O=[N+]([O-])c1ccccc1B(O)O [2-nitrobenzeneboronic acid] | 150 |
| O=[N+]([O-])c1ccccc1CO [2-nitrobenzyl alcohol] | 72 |
| O=[N+]([O-])c1ccccc1CBr [2-nitrobenzyl bromide] | 47 |
| O=[N+]([O-])c1ccccc1CCl [2-nitrobenzyl chloride] | 49 |
| O=[N+]([O-])c1ccccc1CCl [2-nitrobenzyl_chloride] | 48 |
| O=C1Cc2c1cccc2[N+](=O)[O-] [2-nitrobicyclo[4.2.0]octa-1,3,5-trien-7-one] | 116 |
| O=[N+]([O-])c1ccccc1O [2-nitrophenol] | 46 |
| O=C(O)COc1ccccc1[N+](=O)[O-] [2-nitrophenoxyacetic acid] | 158 |
| CCCCCCCC(C)O (stereo not drawn) [2-nonanol] | -35 |
| CCCCCCC(C)=O [2-octanone] | -16 |
| CCCC(C)S (stereo not drawn) [2-pentanethiol] | -112 |
| OCCOc1ccccc1 [2-phenoxyethanol] | 13 |
| N#CC(=CNNc1ccccc1)c1ccccc1 [2-phenyl-3-(2-phenylhydrazino)prop-2-enenitrile] | 156 |
| CCC(C(=O)O)c1ccccc1 (stereo not drawn) [2-phenylbutyric acid] | 38 |
| OCCc1ccccc1 [2-phenylethanol] | -27 |
| OCc1ccccn1 [2-pyridinemethanol] | -6 |
| CCC(C)c1cc([N+](=O)[O-])cc([N+](=O)[O-])c1O (stereo not drawn) [2-sec-Butyl-4,6-dinitrophenol] | 55 |
| CCC(C)c1ccccc1O (stereo not drawn) [2-sec-Butylphenol] | 12 |
